The subject of one experiment is NCI-H460. Nature of the experiment: Antiproliferative activity against human NCI-H460 cells after 48 hrs by MTT assay. It is filed as functional, cell-based. The note with it: NCI-H460, 48 h. A general note: Formazan colour is commonly taken as a measure of viable cells.
In the next experiment the test system is MCF7. Nature of the experiment: Antiproliferative activity against human MCF7 cells after 48 hrs by MTT assay. The class given is functional, cell-based. The note with it: MCF7, 48 h.
Experiment [1] deals with Epidermal growth factor receptor (Homo sapiens, UniProt P00533). Nature of the experiment: Inhibition of human EGFR preincubated for 10 mins followed by addition of FAM-labeled peptide and incubated for 10 mins by Caliper motility shift assay.
Chain of Epidermal growth factor receptor (P00533 whole entry): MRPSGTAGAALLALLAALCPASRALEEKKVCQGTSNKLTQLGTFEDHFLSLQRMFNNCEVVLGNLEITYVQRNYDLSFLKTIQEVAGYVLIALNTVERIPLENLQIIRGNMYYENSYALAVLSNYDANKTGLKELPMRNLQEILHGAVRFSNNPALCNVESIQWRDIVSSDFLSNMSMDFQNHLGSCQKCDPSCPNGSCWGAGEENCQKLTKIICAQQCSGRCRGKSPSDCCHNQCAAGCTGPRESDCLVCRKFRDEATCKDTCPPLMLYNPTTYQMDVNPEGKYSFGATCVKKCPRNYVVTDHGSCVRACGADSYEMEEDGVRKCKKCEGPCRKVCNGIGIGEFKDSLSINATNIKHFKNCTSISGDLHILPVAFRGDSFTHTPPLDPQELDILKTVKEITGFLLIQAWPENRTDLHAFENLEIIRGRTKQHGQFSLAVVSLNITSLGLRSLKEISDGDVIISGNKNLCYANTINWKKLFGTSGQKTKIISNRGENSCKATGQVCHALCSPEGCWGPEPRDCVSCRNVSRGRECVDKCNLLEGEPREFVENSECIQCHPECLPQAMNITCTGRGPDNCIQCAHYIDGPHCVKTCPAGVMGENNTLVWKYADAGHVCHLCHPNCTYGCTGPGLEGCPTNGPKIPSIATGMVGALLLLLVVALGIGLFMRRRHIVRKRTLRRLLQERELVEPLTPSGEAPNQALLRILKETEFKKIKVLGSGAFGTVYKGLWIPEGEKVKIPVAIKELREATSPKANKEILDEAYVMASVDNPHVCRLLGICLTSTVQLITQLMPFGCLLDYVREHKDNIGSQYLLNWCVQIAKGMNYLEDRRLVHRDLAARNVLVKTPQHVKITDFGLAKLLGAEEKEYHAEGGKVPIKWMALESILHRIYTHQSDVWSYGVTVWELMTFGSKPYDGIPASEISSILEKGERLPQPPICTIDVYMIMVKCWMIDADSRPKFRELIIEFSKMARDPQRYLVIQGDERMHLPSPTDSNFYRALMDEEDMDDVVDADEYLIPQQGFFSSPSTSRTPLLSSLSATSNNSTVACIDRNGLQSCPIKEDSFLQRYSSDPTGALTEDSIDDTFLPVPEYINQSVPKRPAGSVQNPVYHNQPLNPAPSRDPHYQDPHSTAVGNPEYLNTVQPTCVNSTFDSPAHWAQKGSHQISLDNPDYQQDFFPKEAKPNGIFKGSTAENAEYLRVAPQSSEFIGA
For another experiment, the system named is HT-29. Kind of experiment: Antiproliferative activity against human HT-29 cells after 48 hrs by MTT assay. Particulars: HT-29, 48 h. It is filed as functional, cell-based.
In experiment [2] the target is Vascular endothelial growth factor receptor 2 (Homo sapiens, UniProt P35968). Kind of experiment: Inhibition of human VEGFR-2 preincubated for 10 mins followed by addition of FAM-labeled peptide and incubated for 10 mins by Caliper motility shift assay.
Chain of Vascular endothelial growth factor receptor 2 (P35968 whole entry): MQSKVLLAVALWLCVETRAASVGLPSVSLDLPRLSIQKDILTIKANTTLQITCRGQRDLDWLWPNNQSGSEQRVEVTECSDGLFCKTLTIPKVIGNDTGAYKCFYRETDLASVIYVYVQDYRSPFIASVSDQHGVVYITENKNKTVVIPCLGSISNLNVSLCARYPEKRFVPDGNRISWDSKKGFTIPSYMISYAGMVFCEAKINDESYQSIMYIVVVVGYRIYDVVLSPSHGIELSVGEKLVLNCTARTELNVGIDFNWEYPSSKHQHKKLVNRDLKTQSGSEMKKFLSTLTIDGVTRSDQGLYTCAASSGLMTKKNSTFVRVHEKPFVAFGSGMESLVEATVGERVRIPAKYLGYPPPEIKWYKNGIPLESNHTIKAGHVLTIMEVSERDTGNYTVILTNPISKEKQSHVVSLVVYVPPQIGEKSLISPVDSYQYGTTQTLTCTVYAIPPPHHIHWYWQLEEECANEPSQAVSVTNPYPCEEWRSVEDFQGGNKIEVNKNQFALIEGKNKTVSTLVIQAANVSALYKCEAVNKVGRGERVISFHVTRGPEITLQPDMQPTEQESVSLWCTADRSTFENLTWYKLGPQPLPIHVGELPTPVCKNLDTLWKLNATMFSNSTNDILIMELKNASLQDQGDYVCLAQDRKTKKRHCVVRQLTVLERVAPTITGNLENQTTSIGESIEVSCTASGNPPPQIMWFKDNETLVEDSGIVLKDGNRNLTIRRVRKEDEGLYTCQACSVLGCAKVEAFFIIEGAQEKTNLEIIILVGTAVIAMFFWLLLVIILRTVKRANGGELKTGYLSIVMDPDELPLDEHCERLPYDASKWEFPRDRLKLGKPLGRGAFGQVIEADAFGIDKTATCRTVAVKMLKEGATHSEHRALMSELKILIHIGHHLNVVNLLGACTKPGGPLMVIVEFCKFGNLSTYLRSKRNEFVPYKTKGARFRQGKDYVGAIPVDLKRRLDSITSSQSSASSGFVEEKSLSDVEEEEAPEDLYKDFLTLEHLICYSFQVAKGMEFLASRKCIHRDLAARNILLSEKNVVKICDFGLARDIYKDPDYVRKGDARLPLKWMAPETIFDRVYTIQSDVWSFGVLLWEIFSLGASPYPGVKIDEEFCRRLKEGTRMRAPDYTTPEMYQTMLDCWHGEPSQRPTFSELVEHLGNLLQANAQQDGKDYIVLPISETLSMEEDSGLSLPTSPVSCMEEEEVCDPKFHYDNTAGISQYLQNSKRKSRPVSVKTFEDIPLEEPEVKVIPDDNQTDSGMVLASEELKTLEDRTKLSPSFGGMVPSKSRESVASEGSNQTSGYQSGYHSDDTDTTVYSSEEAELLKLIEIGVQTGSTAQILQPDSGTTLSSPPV

Turning to `COc1cc2c(Nc3ccc(NC(=O)c4ccc(Cl)cc4)cc3)ncnc2cc1OCc1ccccc1`, the IC50 (usually the concentration at which inhibition is half-maximal) with NCI-H460 was 21.1 µM; in the experiment on MCF7 it was 56.4 µM; in experiment [1], over 10 µM; with HT-29 it was over 100 µM; in experiment [2], over 10 µM.

Turning to `COc1cc2c(Nc3ccc(NC(=O)c4ccc(C)cc4)cc3)ncnc2cc1OCCN1CCCCC1`, the results for the IC50 (in experiment [1]; in the experiment on HT-29; in experiment [2]) were over 10 µM, 6.85 µM and 2.48 µM, respectively.

`COc1cc2c(Nc3ccc(NC(=O)c4ccc(C)cc4)cc3)ncnc2cc1OCCCN1CCN(C)CC1`: the IC50 in the experiment with NCI-H460 was 11.9 µM; in the experiment on MCF7 it was 24.9 µM; in experiment [1], 0.69 µM; with HT-29, 17.1 µM; in experiment [2], 0.87 µM.

With `COc1cc2c(Nc3ccc(NC(=O)c4cccc(Cl)c4)cc3)ncnc2cc1OCCCN1CCN(C)CC1`, the IC50 came out at 12 µM in the experiment on NCI-H460; 4.41 µM in the experiment with MCF7; 0.15 µM in experiment [1]; 5.27 µM in the experiment with HT-29; 1.81 µM in experiment [2].

Regarding `COc1cc2c(Nc3ccc(NC(=O)c4ccc(Cl)cc4)cc3)ncnc2cc1OCCN1CCCCC1`, the IC50 in the experiment with NCI-H460 is 16 µM; with MCF7 it was 0.1 µM; in experiment [1], over 10 µM; in the experiment on HT-29, 5.12 µM; in experiment [2], 4.19 µM.

In the case of `COc1cc2c(Nc3ccc(NC(=O)c4ccc(C)cc4)cc3)ncnc2cc1OCCCN1CCOCC1`, the IC50 in the experiment with MCF7 is 37.6 µM; in experiment [1], 0.76 µM; in the experiment on HT-29, 89.1 µM; in experiment [2] it was 2 µM.

As for `COc1cc2c(Nc3ccc(NC(=O)c4ccc(C)cc4)cc3)ncnc2cc1OCc1ccccc1`, the IC50 is 46.1 µM with NCI-H460; over 100 µM in the experiment with MCF7; over 10 µM in experiment [1]; over 100 µM with HT-29; over 10 µM in experiment [2].

Regarding `COc1cc2c(Nc3ccc(NC(=O)c4cccc(Cl)c4)cc3)ncnc2cc1OCCCN1CCOCC1`, the IC50 in the experiment with MCF7 stood at 7.8 µM; in experiment [1], 0.23 µM; in the experiment on HT-29 it was 21.3 µM; in experiment [2] it was 2.99 µM.

In the case of `COc1cc2c(Nc3ccc(NC(=O)c4ccccc4)cc3)ncnc2cc1OCCCN1CCN(C)CC1`, the IC50 is 27.2 µM in the experiment with NCI-H460, 39 µM in the experiment with MCF7, 31.3 µM in the experiment with HT-29 and 0.56 µM in experiment [2].

For `COc1cc2c(Nc3ccc(NC(=O)c4ccccc4)cc3)ncnc2cc1OCCN1CCCCC1`, the IC50 was 30 µM with NCI-H460; 36 µM in the experiment with MCF7; 4.61 µM in experiment [1]; 26.1 µM in the experiment on HT-29; 4.72 µM in experiment [2].

In the case of `COc1cc2c(Nc3ccc(NC(=O)c4ccccc4Cl)cc3)ncnc2cc1OCCCN1CCN(C)CC1`, the IC50 in the experiment on NCI-H460 is 36.2 µM; in the experiment on MCF7, 15.4 µM; in experiment [1] it was 0.02 µM; in the experiment with HT-29, 23.2 µM; in experiment [2] it was 1.71 µM.

For `COc1cc2c(Nc3ccc(NC(=O)c4ccccc4Cl)cc3)ncnc2cc1OCc1ccccc1`, the concentration for half-maximal inhibition (IC50) in the experiment with NCI-H460 was 28.2 µM; in the experiment with MCF7 it was 78.2 µM; in experiment [1], 0.73 µM; with HT-29 it was over 100 µM; in experiment [2] it was over 10 µM.

For `COc1cc2c(Nc3ccc(NC(=O)c4cccc(Cl)c4)cc3)ncnc2cc1OCc1ccccc1`, the IC50 is 12.5 µM with NCI-H460, over 100 µM in the experiment with MCF7, over 10 µM in experiment [1] and over 10 µM in experiment [2].

As to `COc1cc2c(Nc3ccc(NC(=O)c4ccccc4)cc3)ncnc2cc1OCc1ccccc1`, the concentration for half-maximal inhibition (IC50) in the experiment on NCI-H460 was 62.4 µM; with MCF7, over 100 µM; in experiment [1] it was over 10 µM; with HT-29, 7.37 µM; in experiment [2], over 10 µM.

For the compound `COc1cc2c(Nc3ccc(NC(=O)c4ccc(Cl)cc4)cc3)ncnc2cc1OCCCN1CCOCC1`, the IC50 worked out at 8 µM with NCI-H460; 40.2 µM in the experiment on MCF7; 1.35 µM in experiment [1]; 9.39 µM in the experiment on HT-29; 2.62 µM in experiment [2].

Regarding `COc1ccc(C(=O)Nc2ccc(Nc3ncnc4cc(OCCCN5CCN(C)CC5)c(OC)cc34)cc2)cc1`, the IC50 in the experiment with NCI-H460 stood at 9.49 µM; with MCF7, 24.6 µM; in experiment [1], 1.11 µM; in the experiment on HT-29 it was 22.1 µM; in experiment [2] it was 2.02 µM.

Consider `COc1cc2c(Nc3ccc(NC(=O)c4cccc(Cl)c4)cc3)ncnc2cc1OCCN1CCCCC1`, for which the IC50 in the experiment with MCF7 was 4.34 µM; in experiment [1], 0.3 µM; with HT-29, 7.94 µM; in experiment [2] it was 1.99 µM.

On to `COc1ccc(C(=O)Nc2ccc(Nc3ncnc4cc(OCc5ccccc5)c(OC)cc34)cc2)cc1`, for which the IC50 with NCI-H460 was 16.1 µM; in experiment [1], over 10 µM; in the experiment on HT-29 it was over 100 µM; in experiment [2], over 10 µM.

As for `COc1cc2c(Nc3ccc(NC(=O)c4ccc(Cl)cc4)cc3)ncnc2cc1OCCCN1CCN(C)CC1`, the IC50 in the experiment with NCI-H460 stood at 26 µM; in the experiment with MCF7, 53.2 µM; in experiment [1] it was 1.33 µM; in the experiment on HT-29, 5.54 µM; in experiment [2], 1.86 µM.

The values are drawn from ChEMBL document CHEMBL3758083, “Design and discovery of 4-anilinoquinazoline-acylamino derivatives as EGFR and VEGFR-2 dual TK inhibitors” (Eur J Med Chem, 2016).
